From patent US6872729B2, “Pyrimidinylbenzimidazole and triazinylbenzimidazole derivatives and agricultural/horticultural fungicides” (Kumiai Chemical Industry Co., Ltd., priority 1998, dated 2005)

Test system: not given
Experiment: not given
Details: not given

Row | melting point | SMILES
1 | 121 to 122 °C | COc1cc(OC)nc(-n2c(OC)nc3ccccc32)n1 [Compound I-18, 1-(4,6-dimethoxypyrimidin-2-yl)-2-methoxybenzimidazole]
2 | > 300 °C | Cc1nc2ccccc2n1-c1nc(Cl)nc(Cl)n1 [Compound I-1066, 1-(4,6-dichloro-[1,3,5]triazin-2-yl)-2-methylbenzimidazole]
3 | 93 to 96 °C | COc1cc(OC)nc(-n2c(C(F)(F)F)nc3cc(C)ccc32)n1 [Compound I-298, 1-(4,6-dimethoxypyrimidin-2-yl)-5-methyl-2-trifluoromethylbenzimidazole]
4 | > 300 °C | COc1cc(OC)nc(-n2c(N)nc3cc(C)ccc32)n1 [Compound I-362, 2-amino-1-(4,6-dimethoxypyrimidin-2-yl)-5-methylbenzimidazole]
5 | 146 to 149 °C | COc1nc(OC)nc(-n2c(Cl)nc3cc(Cl)ccc32)n1 [Compound I-277, 2,5-dichloro-1-(4,6-dimethoxy-[1,3,5]triazin-2-yl)benzimidazole]
6 | 163 to 166 °C | COc1cc(OC)nc(-n2c(C)nc3cc(C)ccc32)n1 [Compound I-186, 1-(4,6-dimethoxypyrimidin-2-yl)-2,5-dimethylbenzimidazole]
7 | 176 to 179 °C | CSc1nc(SC)nc(-n2c(C)nc3ccccc32)n1 [Compound I-1042, 1-(4,6-dimethylthio-[1,3,5]triazin-2-yl)-2-methylbenzimidazole]
8 | 145 to 148 °C | COc1cc(OC)nc(-n2c(Cl)nc3cc(C)ccc32)n1 [Compound I-258, 2-chloro-1-(4,6-dimethoxypyrimidin-2-yl)-5-methylbenzimidazole]
9 | 114 to 116 °C | COc1ccnc(-n2cnc3ccccc32)n1 [Compound I-667, 1-(4-methoxypyrimidin-2-yl)-benzimidazole]
10 | 114 to 117 °C | COc1cc(OC)nc(-n2c(S(C)(=O)=O)nc3ccccc32)n1 [Compound I-5, 1-(4,6-dimethoxypyrimidin-2-yl)-2-methylsulfonylbenzimidazole]
11 | 293 to 296 °C | COc1nc(OC)nc(-n2c(N)nc3cc(Cl)ccc32)n1 [Compound I-368, 2-amino-5-chloro-1-(4,6-dimethoxy-[1,3,5]triazin-2-yl)benzimidazole]
12 | 173 to 176 °C | COc1nc(OC)nc(-n2c(C)nc3cc(Cl)ccc32)n1 [Compound I-215, 5-chloro-1-(4,6-dimethoxy-[1,3,5]triazin-2-yl)-2-methylbenzimidazole]
13 | 137 to 140 °C | COc1nc(OC)nc(-n2c(C(F)(F)F)nc3cc(C)ccc32)n1 [Compound I-312, 1-(4,6-dimethoxy-[1,3,5]triazin-2-yl)-5-methyl-2-trifluoromethylbenzimidazole]
14 | 135 to 137 °C | COc1cc(OC)nc(-n2c(SC)nc3ccccc32)n1 [Compound I-4, 1-(4,6-dimethoxypyrimidin-2-yl)-2-methylthiobenzimidazole]

Test system: Erysiphe graminis
Experiment: Test for preventive effect on wheat powdery mildew
Format: in vivo
Details: wheat (Norin-61-go) seedlings, 500 ppm active ingredient, preventive treatment; diseased area of first leaves 10 days after inoculation with Erysiphe graminis
In short: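 Wheat seedlings (Norin-61-go), grown 8 days, were sprayed with wettable-powder solutions at 500 ppm active ingredient, air-dried, then inoculated by sprinkling Erysiphe graminis spores. Plants were kept at 20-25° C. Diseased area on first leaves was scored 10 days post-inoculation against a rating standard.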

Row | SMILES | Biological effectiveness
15 | COc1cc(OC)nc(-n2c(C(F)(F)F)nc3cc(C)ccc32)n1 [Compound I-298, 1-(4,6-dimethoxypyrimidin-2-yl)-5-methyl-2-trifluoromethylbenzimidazole] | A (No diseased area)
16 | COc1cc(OC)nc(-n2c(N)nc3cc(C)ccc32)n1 [Compound I-362, 2-amino-1-(4,6-dimethoxypyrimidin-2-yl)-5-methylbenzimidazole] | A (No diseased area)
17 | COc1nc(OC)nc(-n2c(Cl)nc3cc(Cl)ccc32)n1 [Compound I-277, 2,5-dichloro-1-(4,6-dimethoxy-[1,3,5]triazin-2-yl)benzimidazole] | B (Diseased area of less than 25%)
18 | COc1cc(OC)nc(-n2c(C)nc3cc(C)ccc32)n1 [Compound I-186, 1-(4,6-dimethoxypyrimidin-2-yl)-2,5-dimethylbenzimidazole] | A (No diseased area)
19 | COc1cc(OC)nc(-n2c(Cl)nc3cc(C)ccc32)n1 [Compound I-258, 2-chloro-1-(4,6-dimethoxypyrimidin-2-yl)-5-methylbenzimidazole] | A (No diseased area)
20 | COc1ccnc(-n2cnc3ccccc32)n1 [Compound I-667, 1-(4-methoxypyrimidin-2-yl)-benzimidazole] | B (Diseased area of less than 25%)
21 | CCOc1nc(OC)nc(-n2c(C)nc3cc(Cl)ccc32)n1 [Compound I-438] | A (No diseased area)
22 | COc1nc(OC)nc(-n2c(C)nc3cc(I)ccc32)n1 [Compound I-217] | A (No diseased area)
23 | CCCc1cc(OC)nc(-n2c(C)nc3cc(Cl)ccc32)n1 [Compound I-964] | B (Diseased area of less than 25%)
24 | CCOc1cc(C)nc(-n2c(C)nc3cc(C)ccc32)n1 [Compound I-775] | A (No diseased area)
25 | COc1cc(OC)nc(-n2c(-c3ccc(Cl)cc3)nc3ccccc32)n1 [Compound I-35] | B (Diseased area of less than 25%)
26 | CCCOc1cc(C)nc(-n2cnc3ccccc32)n1 [Compound I-804] | A (No diseased area)
27 | COc1cc(OC)nc(-n2c(C)nc3ccc(F)cc32)n1 [Compound I-200] | A (No diseased area)
28 | CSc1nc(C)nc(-n2c(C(F)(F)F)nc3cc(C)ccc32)n1 [Compound I-1048] | A (No diseased area)
29 | CCCCOc1cc(C)nc(-n2cnc3ccccc32)n1 [Compound I-872] | B (Diseased area of less than 25%)
30 | COc1nc(OC)nc(-n2c(C(F)(F)F)nc3cc(I)ccc32)n1 [Compound I-327] | A (No diseased area)
31 | COc1cc(OC)nc(-n2c(N(C)C)nc3ccccc32)n1 [Compound I-30] | B (Diseased area of less than 25%)
32 | COc1nc(OC)nc(-n2c(N)nc3cc(Cl)ccc32)n1 [Compound I-368, 2-amino-5-chloro-1-(4,6-dimethoxy-[1,3,5]triazin-2-yl)benzimidazole] | B (Diseased area of less than 25%)
33 | COc1nc(OC)nc(-n2c(C)nc3cc(Cl)ccc32)n1 [Compound I-215, 5-chloro-1-(4,6-dimethoxy-[1,3,5]triazin-2-yl)-2-methylbenzimidazole] | A (No diseased area)

Row | SMILES | Biological effectiveness
34 | CCOc1cc(OCC)nc(-n2c(C)nc3ccc(F)cc32)n1 [Compound I-507] | A (No diseased area)
35 | CCc1ccc2c(c1)ncn2-c1nc(OC)nc(OC)n1 [Compound I-134] | A (No diseased area)
36 | COc1nc(C2CC2)nc(-n2c(C)nc3cc(C)ccc32)n1 [Compound I-1019] | A (No diseased area)
37 | Cc1cc(C)nc(-n2cnc3ccccc32)n1 [Compound I-1079] | B (Diseased area of less than 25%)
38 | C#CCOc1cc(C)nc(-n2c(N)nc3cc(C)ccc32)n1 [Compound I-904] | B (Diseased area of less than 25%)
39 | COc1nc(OC)nc(-n2c(C)nc3cc(C)ccc32)n1 [Compound I-218] | A (No diseased area)
40 | COc1nc(OC)nc(-n2cnc3cc(C)c(C)cc32)n1 [Compound I-176] | A (No diseased area)
41 | COc1ccc2c(c1)nc(C)n2-c1nc(OC)cc(OC)n1 [Compound I-189] | A (No diseased area)
42 | COc1nc(OC)nc(-n2c(C(C)C)nc3cc(Cl)ccc32)n1 [Compound I-359] | A (No diseased area)
43 | COc1cc(OC)nc(-n2c(C3CC3)nc3ccccc32)n1 [Compound I-10] | B (Diseased area of less than 25%)
44 | CCOc1cc(OCC)nc(-n2c(C(F)(F)F)nc3ccccc32)n1 [Compound I-465] | B (Diseased area of less than 25%)
45 | COc1cc(OC)nc(-n2c(CCl)nc3ccccc32)n1 [Compound I-23] | A (No diseased area)
46 | COc1cc(OC)nc(-n2c(Cl)nc3ccc(C)cc32)n1 [Compound I-272] | A (No diseased area)
47 | COc1nc(OC)nc(-n2c(C(F)(F)F)nc3cc(C)ccc32)n1 [Compound I-312, 1-(4,6-dimethoxy-[1,3,5]triazin-2-yl)-5-methyl-2-trifluoromethylbenzimidazole] | A (No diseased area)
48 | COc1cc(OC)nc(-n2c(SC)nc3cc(Cl)ccc32)n1 [Compound I-388] | A (No diseased area)
49 | COc1cc(OC)nc(-n2cnc3ccc(C)cc32)n1 [Compound I-114] | B (Diseased area of less than 25%)
50 | COc1nc(OC)nc(-n2c(C(F)(F)F)nc3cc(C(C)(C)C)ccc32)n1 [Compound I-316] | B (Diseased area of less than 25%)
51 | COc1nc(OC)nc(-n2cnc3cc(Br)ccc32)n1 [Compound I-131] | A (No diseased area)
52 | COc1nc(OC)nc(-n2c(C)nc3cc(C(C)C)ccc32)n1 [Compound I-221] | B (Diseased area of less than 25%)
